Values of other authors in patent US6551611B2, “Hormone replacement therapy method” (Schering Aktiengesellschaft, priority 1995, dated 2003).

Conditions: oral administration

bioavailability of estradiol orally, average: 5 % of the oral dose
Structure (SMILES): C[C@]12CC[C@@H]3c4ccc(O)cc4CC[C@H]3[C@@H]1CC[C@@H]2O [estradiol]
